Source: patent US9212182B2, “Bicyclic sulfonamide compounds as sodium channel inhibitors” (AMGEN INC., priority 2013, dated 2015)

Target: Nav 1.7 (Homo sapiens (Human), UniProt Q15858)
Assay: in-vitro Nav 1.7 PX (IC50)
Format: cell-based
Conditions: in-vitro Nav 1.7 PX data

Sequence of Nav 1.7 (Q15858 whole entry): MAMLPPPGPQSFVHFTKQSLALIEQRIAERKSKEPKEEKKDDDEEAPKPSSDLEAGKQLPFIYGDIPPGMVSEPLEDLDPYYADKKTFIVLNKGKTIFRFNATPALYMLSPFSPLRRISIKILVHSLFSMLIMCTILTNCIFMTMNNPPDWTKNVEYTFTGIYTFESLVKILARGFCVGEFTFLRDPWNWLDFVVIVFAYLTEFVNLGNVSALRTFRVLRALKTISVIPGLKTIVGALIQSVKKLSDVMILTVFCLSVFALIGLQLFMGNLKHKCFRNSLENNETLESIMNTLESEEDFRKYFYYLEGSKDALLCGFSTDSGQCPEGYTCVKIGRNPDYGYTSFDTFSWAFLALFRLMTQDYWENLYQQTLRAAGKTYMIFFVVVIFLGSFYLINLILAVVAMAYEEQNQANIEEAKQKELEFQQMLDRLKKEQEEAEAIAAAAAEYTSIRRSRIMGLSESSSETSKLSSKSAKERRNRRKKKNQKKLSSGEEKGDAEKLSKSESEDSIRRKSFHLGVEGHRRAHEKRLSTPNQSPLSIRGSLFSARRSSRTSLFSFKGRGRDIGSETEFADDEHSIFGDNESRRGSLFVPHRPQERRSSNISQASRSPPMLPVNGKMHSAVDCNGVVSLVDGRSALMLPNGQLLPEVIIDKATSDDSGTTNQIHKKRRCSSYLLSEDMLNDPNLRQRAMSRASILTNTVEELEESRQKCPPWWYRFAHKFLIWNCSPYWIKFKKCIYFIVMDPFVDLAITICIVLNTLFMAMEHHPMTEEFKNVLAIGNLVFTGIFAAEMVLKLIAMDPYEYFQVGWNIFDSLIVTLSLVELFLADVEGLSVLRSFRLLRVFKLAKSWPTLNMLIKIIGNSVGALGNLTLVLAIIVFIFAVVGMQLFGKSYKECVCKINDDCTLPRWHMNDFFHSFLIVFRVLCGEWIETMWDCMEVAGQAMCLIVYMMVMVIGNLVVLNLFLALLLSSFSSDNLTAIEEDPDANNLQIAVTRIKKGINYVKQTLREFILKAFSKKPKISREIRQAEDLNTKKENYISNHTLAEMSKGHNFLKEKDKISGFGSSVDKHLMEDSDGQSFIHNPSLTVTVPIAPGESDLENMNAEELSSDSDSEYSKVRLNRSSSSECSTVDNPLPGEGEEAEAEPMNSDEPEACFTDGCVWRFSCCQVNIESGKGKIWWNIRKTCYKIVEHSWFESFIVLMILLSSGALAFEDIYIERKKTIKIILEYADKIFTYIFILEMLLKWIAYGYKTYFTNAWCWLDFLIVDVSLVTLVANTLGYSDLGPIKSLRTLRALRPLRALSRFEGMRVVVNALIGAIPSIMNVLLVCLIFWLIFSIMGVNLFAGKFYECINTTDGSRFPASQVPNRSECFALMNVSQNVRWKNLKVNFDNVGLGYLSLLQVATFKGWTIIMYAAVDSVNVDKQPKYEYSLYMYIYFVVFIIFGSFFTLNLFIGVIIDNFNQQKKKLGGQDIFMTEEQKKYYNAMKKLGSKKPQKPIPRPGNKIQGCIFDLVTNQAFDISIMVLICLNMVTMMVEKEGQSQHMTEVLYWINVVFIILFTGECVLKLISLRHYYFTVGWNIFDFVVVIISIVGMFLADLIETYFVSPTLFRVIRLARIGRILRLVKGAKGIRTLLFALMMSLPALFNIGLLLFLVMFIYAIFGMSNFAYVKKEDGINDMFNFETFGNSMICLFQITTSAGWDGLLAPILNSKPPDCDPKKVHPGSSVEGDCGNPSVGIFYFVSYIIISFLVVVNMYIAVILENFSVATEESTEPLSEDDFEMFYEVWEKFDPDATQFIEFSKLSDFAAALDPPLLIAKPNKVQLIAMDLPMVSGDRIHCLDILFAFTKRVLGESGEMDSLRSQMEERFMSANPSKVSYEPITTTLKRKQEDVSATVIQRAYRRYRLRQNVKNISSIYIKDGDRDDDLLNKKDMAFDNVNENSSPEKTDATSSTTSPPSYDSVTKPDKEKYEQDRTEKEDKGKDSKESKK

COc1cc(-c2ccc(Cl)c(C)c2)c(F)cc1-n1c(=O)ccc2cc(S(=O)(=O)Nc3nncs3)ccc21 [Example 1074, 1-(4′-chloro-2-fluoro-5-methoxy-3′-methyl-4-biphenylyl)-2-oxo-N-1,3,4-thiadiazol-2-yl-1,2-dihydro-6-quinolinesulfonamide]
IC50: 3 nM

COc1cc(CC(C)(C)C)c(F)cc1-n1c(=O)ccc2cc(S(=O)(=O)Nc3ccon3)ccc21 [Example 1076, 1-(4-(2,2-dimethylpropyl)-5-fluoro-2-methoxyphenyl)-N-3-isoxazolyl-2-oxo-1,2-dihydro-6-quinolinesulfonamide]
IC50: 64 nM

COc1cc(C2CCCCC2)c(F)cc1-n1c(=O)ccc2cc(S(=O)(=O)Nc3ccon3)ccc21 [Example 1077, 1-(4-cyclohexyl-5-fluoro-2-methoxyphenyl)-N-3-isoxazolyl-2-oxo-1,2-dihydro-6-quinolinesulfonamide]
IC50: 38 nM

COc1cc(CC2CCC2)c(F)cc1-n1c(=O)ccc2cc(S(=O)(=O)Nc3ccon3)ccc21 [Example 1078, 1-(4-(cyclobutylmethyl)-5-fluoro-2-methoxyphenyl)-N-3-isoxazolyl-2-oxo-1,2-dihydro-6-quinolinesulfonamide]
IC50: 69 nM

COc1nc(-c2cc(F)cc(F)c2)c(Cl)cc1-n1c(=O)ccc2cc(S(=O)(=O)Nc3ncccn3)ccc21 [Example 1080, 1-(5-chloro-6-(3,5-difluorophenyl)-2-methoxy-3-pyridinyl)-2-oxo-N-2-pyrimidinyl-1,2-dihydro-6-quinolinesulfonamide]
IC50: 21 nM

COc1nc(-c2cc(F)cc(F)c2)c(Cl)cc1-n1c(=O)ccc2cc(S(=O)(=O)Nc3ncccn3)ccc21 [Example 1081, 1-(5-chloro-6-(3,5-difluorophenyl)-2-methoxy-3-pyridinyl)-2-oxo-N-2-pyrimidinyl-1,2-dihydro-6-quinolinesulfonamide]
IC50: 4150 nM

COc1cc(CC2C[C@@H]3CC[C@@H]2C3)c(F)cc1-n1c(=O)ccc2cc(S(=O)(=O)Nc3ccon3)ccc21 (some centres unmarked) [Example 1082]
IC50: 9 nM

COc1cc([C@H]2CC[C@@H](C)CC2)c(F)cc1-n1c(=O)ccc2cc(S(=O)(=O)Nc3ccon3)ccc21 [Example 1083, 1-(5-fluoro-2-methoxy-4-(cis-4-methylcyclohexyl)phenyl)-N-3-isoxazolyl-2-oxo-1,2-dihydro-6-quinolinesulfonamide, 1-(5-fluoro-2-methoxy-4-(trans-4-methylcyclohexyl)phenyl)-N-3-isoxazolyl-2-oxo-1,2-dihydro-6-quinolinesulfonamide]
IC50: 10 nM

COc1nc(-c2ccc(Cl)c(C)c2)c(Cl)cc1-n1c(=O)ccc2cc(S(=O)(=O)Nc3ccon3)ccc21 [Example 1085, 1-(5-chloro-6-(4-chloro-3-methylphenyl)-2-methoxy-3-pyridinyl)-N-3-isoxazolyl-2-oxo-1,2-dihydro-6-quinolinesulfonamide]
IC50: 3440 nM

COc1cc([C@H]2CC[C@@H](OC)CC2)c(F)cc1-n1c(=O)ccc2cc(S(=O)(=O)Nc3ccon3)ccc21 [Example 1086, 1-(5-fluoro-2-methoxy-4-(cis-4-methoxycyclohexyl)phenyl)-N-3-isoxazolyl-2-oxo-1,2-dihydro-6-quinolinesulfonamide, 1-(5-fluoro-2-methoxy-4-(trans-4-methoxycyclohexyl)phenyl)-N-3-isoxazolyl-2-oxo-1,2-dihydro-6-quinolinesulfonamide]
IC50: 3910 nM

COc1cc(C[C@@H]2C[C@@H]3CC[C@H]2O3)c(F)cc1-n1c(=O)ccc2cc(S(=O)(=O)Nc3ccon3)ccc21 [Example 1087, 1-(5-fluoro-2-methoxy-4-((1R,2R,4S)-7-oxabicyclo[2.2.1]hept-2-ylmethyl)phenyl)-N-3-isoxazolyl-2-oxo-1,2-dihydro-6-quinolinesulfonamide, 1-(5-fluoro-2-methoxy-4-((1S,2S,4R)-7-oxabicyclo[2.2.1]hept-2-ylmethyl)phenyl)-N-3-isoxazolyl-2-oxo-1,2-dihydro-6-quinolinesulfonamide]
IC50: 1730 nM
